Reference: US20250195551A1 (L4 BIO LLC, priority 2023, published 2025)
Entries after “also recorded” stand apart in the source; their conditions may differ.

Tested on: pentylenetetrazol (PTZ)-induced ictal brain activity
Experiment: Modulation of pentylenetetrazol (PTZ)-induced seizures, BOLD fMRI in rats
Format: in vivo
Details: 3 mg/kg, positive control; anesthetized male Wistar rats
Description: Functional MRI (fMRI) was performed using a high-field preclinical MRI system in anesthetized male Wistar rats in order to determine the modulation of pentylenetetrazol (PTZ)-induced ictal brain activity by chronic treatment with test compound (TC). Animals treated with vehicle and 3 mg/kg Alprazolam served as controls. A schematic of the study design can be seen in FIG. 6. […] Various physiological parameters were also measured throughout the experiment including body weight, CO2 levels, blood pH, and heart rate.

Question: Which “PTZ-induced ictal brain activity (BOLD fMRI area under the curve) vs vehicle” value does the source give for Cc1nnc2n1-c1ccc(Cl)cc1C(c1ccccc1)=NC2 [Alprazolam] here?
Answer: effectively cancelled PTZ-induced brain activity; also recorded: Vehicle vs. Alprazolam in all
